According to patent publication US5679671A, “Amino acid derivative” (Eisai Co., Ltd., priority 1993, dated 1997):
pIC50: −log10 of the molar value.

Key:
[1] = test system: 2K-1C-Goldblatt Hypertensive Rat; test: Hypotensive effect on 2K-1C-Goldblatt hypertensive rat, oral (Experiment C-3); format: in vivo, male Sprague Dawley rats
Procedure: A silver clip with a slit of 0.25 mm in width was fitted into the left renal artery of each of male Sprague Dawley rats (aged 6 to 7 weeks) and, after three weeks, rats showing a systolic blood pressure of 180 mmHg or above were employed. One to several drops of a 1N aqueous solution of sodium hydroxide were dropped into purified water and each test compound was dissolved or emulsified therein to prepare it at a dose of 5 ml/kg, followed by orally administration. After keeping the rats in an incubator at 45° C. for 5 to 10 minutes, the systolic blood pressure was measured by the indirect method of tail artery plethysmography. As a comparative compound, [4S-[4α,7α(R*),12bβ]]-7-[(1-oxo-2-(S)-thio-3-phenyl-propyl)amino[-1,2,3,4,6,7,8,12b-octahydro-6-oxo-pyrido[2,1-a][2]benzazepine-4-carboxylic acid was used.

ACE [2] = target: T1, ACE (Rattus norvegicus, UniProt P47820); test: ACE inhibition activity (Experiment E-1); format: biochemical; details: rat lung membrane fraction, pH 8.3
T1 construct: membrane fraction prepared from rat lung; from tissue; host or cells: rat lung, membrane fraction (method of Wu-Wong et al.)
T1 sequence (P47820 36-1313): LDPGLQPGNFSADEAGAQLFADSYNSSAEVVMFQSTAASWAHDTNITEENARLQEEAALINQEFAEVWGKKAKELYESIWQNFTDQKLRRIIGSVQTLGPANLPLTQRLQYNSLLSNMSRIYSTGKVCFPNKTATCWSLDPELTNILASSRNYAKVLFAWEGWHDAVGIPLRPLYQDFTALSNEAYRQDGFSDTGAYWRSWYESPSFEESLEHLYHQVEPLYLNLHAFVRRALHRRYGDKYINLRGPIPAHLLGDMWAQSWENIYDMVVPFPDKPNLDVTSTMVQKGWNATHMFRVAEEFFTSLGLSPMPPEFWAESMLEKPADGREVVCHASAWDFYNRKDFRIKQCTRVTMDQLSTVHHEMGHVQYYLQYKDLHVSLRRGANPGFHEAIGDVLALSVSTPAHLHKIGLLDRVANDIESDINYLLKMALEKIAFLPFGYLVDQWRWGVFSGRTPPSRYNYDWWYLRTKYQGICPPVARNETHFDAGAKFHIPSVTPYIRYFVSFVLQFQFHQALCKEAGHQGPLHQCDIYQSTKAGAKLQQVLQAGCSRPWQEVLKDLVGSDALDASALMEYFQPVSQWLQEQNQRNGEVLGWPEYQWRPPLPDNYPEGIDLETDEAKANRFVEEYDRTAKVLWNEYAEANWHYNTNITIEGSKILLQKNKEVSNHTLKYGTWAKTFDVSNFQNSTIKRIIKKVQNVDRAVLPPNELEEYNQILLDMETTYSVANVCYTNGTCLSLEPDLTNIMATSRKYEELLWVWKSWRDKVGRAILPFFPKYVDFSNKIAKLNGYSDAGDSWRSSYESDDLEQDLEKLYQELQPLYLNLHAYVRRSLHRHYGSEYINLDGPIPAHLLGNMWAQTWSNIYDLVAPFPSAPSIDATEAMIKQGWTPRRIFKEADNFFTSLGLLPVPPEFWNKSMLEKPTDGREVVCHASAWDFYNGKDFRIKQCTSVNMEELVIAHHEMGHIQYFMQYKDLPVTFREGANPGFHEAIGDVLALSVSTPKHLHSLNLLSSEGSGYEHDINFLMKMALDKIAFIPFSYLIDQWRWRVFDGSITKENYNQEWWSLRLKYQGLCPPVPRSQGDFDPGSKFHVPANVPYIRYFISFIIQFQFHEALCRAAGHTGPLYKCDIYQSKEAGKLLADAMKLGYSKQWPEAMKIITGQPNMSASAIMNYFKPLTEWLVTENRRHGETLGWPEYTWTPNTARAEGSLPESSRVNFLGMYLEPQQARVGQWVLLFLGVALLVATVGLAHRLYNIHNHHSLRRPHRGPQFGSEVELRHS
Procedure: (§1) As a source of the enzyme ACE, a membrane fraction prepared from rat lung in accordance with the method of Wu-Wong et al. (Characterization of Endthelin Converting Enzyme in Rat Lung., Jinshyum R. Wu-Wong, Gerald, P. Budzik, Edward M. Devine and Terry J. Opgenorth, Biochem. Biophys. Res. Commun., 1990, 171, 1291-1296.) was used. The ACE activity was determined with the use of a modification (modified to a borate buffer pH 8.3) of the method of Cushman and Cheung (Spectrophotometric Assay and Properties of the Angiotensin-Converting Enzyme of Rabbit Lung., Cushman D. W. and Cheung H. S., 1971, 20, 1637-1648.). Now the procedure will be briefly described.
In the presence of ACE, the hippurate liberated from hippuryl-histidyl-leucine (Hippuryl-His-Leu (PeptideInstitute Inc., Japan)) was extracted with ethyl acetate and then the absorbance was measured at a wavelength of 228 nm.
(§2) To determine the NEP inhibition activity and the ACE inhibition activity, the inhibitor was added to the assay systems of both enzyme activities as described above in such a manner as to give the final concentrations of 1, 3, 10, 30, 100, 800 and 1000 nM and inhibition curves were prepared. Then the concentration at which 50% inhibition was achieved was taken as IC50.

ACE [3] = target: T1, ACE; test: ACE inhibition activity (Experiment F-1); format: biochemical; details: rat lung membrane fraction, pH 8.3
Procedure: as §1, with “Gerald” for “Gerald,”, “M,” for “M.”
In the presence of ACE, the hippurate liberated from hippuryl-histidyl-leucine (Hippuryl-His-Leu (Peptide Institute Inc., Japan)) was extracted with ethyl acetate and then the absorbance was measured at a wavelength of 228 nm.
as §2, with “With respect to” for “To determine”, “300” for “800”, “1000” for “1000 nM and”, “prepared, and then” for “prepared. Then”

SMILES | Decrease (%) in blood pressure after 6 hrs. ([1]; 3 mg/kg oral) [%] | pIC50 (ACE [2]) | pIC50 (ACE [3]) | Decrease (%) in blood pressure after 1-3 hrs. ([1]; 1 mg/kg oral, after 2 hrs) [%] | Decrease (%) in blood pressure after 6 hrs. ([1]; 1 mg/kg oral) [%] | other results
O=C(N[C@H]1Cc2ccccc2[C@H]2CCC[C@@H](C(=O)O)N2C1=O)[C@@H](S)Cc1ccccc1 [Comp. cpd. E-1, [4S-[4α,7α(R*),12bβ]]-7-[(1-oxo-2-(S)-thio-3-phenyl-propyl)amino]-1,2,3,4,6,7,8,12b-octahydro-6-oxopyrido-[2,1-a][2]benzazepine-4-carboxylic acid, reference compound] | 12.9 | 8.05 | 7.97 | – | – | Decrease (%) in blood pressure after 1-3 hrs. ([1]; 3 mg/kg oral, after 1 hr): 15.4%; Decrease (%) in blood pressure after 1-3 hrs. ([1]; 10 mg/kg oral, after 1 hr): 14.2%; Decrease (%) in blood pressure after 6 hrs. ([1]; 10 mg/kg oral): 19.1%
CC[C@H](C)[C@H](S)C(=O)NC1CCc2ccccc2N(CC(=O)O)C1=O (stereo partly drawn) [Example A-9, 1-Carboxymethyl-3-[(2S,3S)-2-mercapto-3-methylvarelylamino]-1H-[1]benzazepin-2-one] | – | – | – | 17.3 | 20.8 | –
CC[C@H](C)[C@H](S)C(=O)N[C@H]1CCC[C@H]2SC[C@@H](C(=O)O)N2C1=O [Example C-8, [3R-[3α,6α,(S*),9aβ]]-6-[[(2S,3S)-3-methyl-1-oxo-2-thiopentyl]amino]-octahydro-5-oxothiazol[3,2-a]-azepine-3-carboxylic acid] | – | – | 8.28 | 28.4 | 25.3 | –
CC[C@H](C)[C@H](S)C(=O)N[C@H]1Cc2ccc(-c3ccccc3)cc2[C@H]2CCC[C@@H](C(=O)O)N2C1=O [Example C-14, [4S-[4α,7α(R*),12bβ]]-7-[[(2S,3S)-3-Methyl-1-oxo-2-thiopentyl]amino]-6-oxo-11-phenyl-1,2,3,4,6,7,8,12b-octahydropyrido[2,1-a][2]benzazepine-4-carboxylic acid] | 22.2 | 7.96 | – | – | 12.7 | Decrease (%) in blood pressure after 1-3 hrs. ([1]; 1 mg/kg oral, after 3 hrs): 13.4%; Decrease (%) in blood pressure after 1-3 hrs. ([1]; 3 mg/kg oral, after 3 hrs): 25.9%
CC(C)[C@H](S)C(=O)N[C@H]1Cc2ccc(-c3ccccc3)cc2[C@H]2CCC[C@@H](C(=O)O)N2C1=O [Example E-10, [4S-[4α,7α(R*),12bβ]]-7-[(S)-2-Mercapto-3-methylbutyrylamino]-6-oxo-11-phenyl-1,2,3,4,6,7,8,12b-octahydropyrido[2,1-a][2]benzazepine-4-carboxylic acid] | – | 8.00 | – | – | – | –
O=C(N[C@H]1CCC[C@H]2SC[C@@H](C(=O)O)N2C1=O)[C@@H](S)Cc1ccccc1 [Example F-17, [3R-[3α,6α(S*),9aβ]]-6-[[(S)-1-Oxo-2-thio-3-phenylpropyl]amino]-octahydro-5-oxothiazol[3,2-a]-azepine-3-carboxylic acid] | – | – | 7.87 | – | – | –
